Laboratory results from US20150065345A1, “1,2,4 - TRIAZOLE DERIVATIVES AS HERBICIDALS” (SYNGENTA LIMITED, priority 2012, published 2015).

Assays:
Assay type in all cases: in vivo
Settings in all cases: 1000 g/h, evaluated after 13 days, five point scale
[1] = tested on: Amaranthus retoflexus (AMARE); experiment: Glasshouse herbicide test, post-emergence
Description: (§1) Seeds of a variety of test species are sown in standard soil in pots Alopecurus myosuroides (ALOMY), Amaranthus retoflexus (AMARE), Setaria faberi (SETFA), Echinochloa crus-galli (ECHCG), Lolium perenne (LOLPE), Solanum nigrum (SOLNI), Stellaria media (STEME) and Digitaria sanguinalis (DIGSA). After cultivation for one day (pre-emergence) or after 8 days cultivation (post-emergence) under controlled conditions in a glasshouse (at 24/16° C., day/night; 14 hours light; 65% humidity), the plants are sprayed with an aqueous spray solution derived from the formulation of the technical active ingredient in acetone/water (50:50) solution containing 0.5% Tween 20 (polyoxyethelyene sorbitan monolaurate, CAS RN 9005-64-5). Compounds are applied at 1000 g/h. The test plants are then grown in a glasshouse under controlled conditions in a glasshouse (at 24/16° C., day/night; 14 hours light; 65% humidity) and watered twice daily. After 13 days for pre and post-emergence, the test is evaluated for the percentage damage caused to the plant. The biological activities are shown in the following table on a five point scale (5=80-100%; 4=60-79%; 3=40-59%; 2=20-39%; 1=0-19%).

[2] = tested on: Digitaria sanguinalis (DIGSA); experiment: Glasshouse herbicide test, post-emergence
Description: as §1

Lolium perenne (LOLPE) [3] = experiment: Glasshouse herbicide test, post-emergence
Description: as §1

Stellaria media (STEME) [4] = experiment: Glasshouse herbicide test, post-emergence
Description: as §1

[5] = tested on: Amaranthus retoflexus (AMARE); experiment: Glasshouse herbicide test, pre-emergence
Description: as §1

[6] = tested on: Digitaria sanguinalis (DIGSA); experiment: Glasshouse herbicide test, pre-emergence
Description: as §1

Lolium perenne (LOLPE) [7] = experiment: Glasshouse herbicide test, pre-emergence
Description: as §1

Stellaria media (STEME) [8] = experiment: Glasshouse herbicide test, pre-emergence
Description: as §1

[9] = tested on: Alopecurus myosuroides (ALOMY); experiment: Glasshouse herbicide test, post-emergence
Description: as §1

[10] = tested on: Echinochloa crus-galli (ECHCG); experiment: Glasshouse herbicide test, post-emergence
Description: as §1

IPOHE [11] = experiment: Glasshouse herbicide test, post-emergence
Description: [The procedure below names another species; the source lists this species under the same test.] as §1

Setaria faberi (SETFA) [12] = experiment: Glasshouse herbicide test, post-emergence
Description: as §1

Solanum nigrum (SOLNI) [13] = experiment: Glasshouse herbicide test, post-emergence
Description: as §1

[14] = tested on: Alopecurus myosuroides (ALOMY); experiment: Glasshouse herbicide test, pre-emergence
Description: as §1

[15] = tested on: Echinochloa crus-galli (ECHCG); experiment: Glasshouse herbicide test, pre-emergence
Description: as §1

IPOHE [16] = experiment: Glasshouse herbicide test, pre-emergence
Description: [The procedure below names another species; the source lists this species under the same test.] as §1

Setaria faberi (SETFA) [17] = experiment: Glasshouse herbicide test, pre-emergence
Description: as §1

Solanum nigrum (SOLNI) [18] = experiment: Glasshouse herbicide test, pre-emergence
Description: as §1

| Compound | percentage damage caused to the plant, AMARE, POST Application [1] | percentage damage caused to the plant, DIGSA, POST Application [2] | percentage damage caused to the plant, LOLPE, POST Application (Lolium perenne (LOLPE) [3]) | percentage damage caused to the plant, STEME, POST Application (Stellaria media (STEME) [4]) | percentage damage caused to the plant, AMARE, PRE Application [5] | percentage damage caused to the plant, DIGSA, PRE Application [6] | percentage damage caused to the plant, LOLPE, PRE Application (Lolium perenne (LOLPE) [7]) | percentage damage caused to the plant, STEME, PRE Application (Stellaria media (STEME) [8]) | percentage damage caused to the plant, ALOMY, POST Application [9] | percentage damage caused to the plant, AMARE, POST Application ([1]; second table) | percentage damage caused to the plant, ECHCG, POST Application [10] | percentage damage caused to the plant, IPOHE, POST Application (IPOHE [11]) | percentage damage caused to the plant, SETFA, POST Application (Setaria faberi (SETFA) [12]) | percentage damage caused to the plant, SOLNI, POST Application (Solanum nigrum (SOLNI) [13]) | percentage damage caused to the plant, ALOMY, PRE Application [14] | percentage damage caused to the plant, AMARE, PRE Application ([5]; second table) | percentage damage caused to the plant, ECHCG, PRE Application [15] | percentage damage caused to the plant, IPOHE, PRE Application (IPOHE [16]) | percentage damage caused to the plant, SETFA, PRE Application (Setaria faberi (SETFA) [17]) | percentage damage caused to the plant, SOLNI, PRE Application (Solanum nigrum (SOLNI) [18]) |
| --- | --- | --- | --- | --- | --- | --- | --- | --- | --- | --- | --- | --- | --- | --- | --- | --- | --- | --- | --- | --- |
| Cn1cnnc1NC(=O)c1ccc(S(C)(=O)=O)c(COCC(F)(F)F)c1Cl [Compound 1.001] | 5 (5=80-100%) | 5 (5=80-100%) | 1 (1=0-19%) | 5 (5=80-100%) | 3 (3=40-59%) | 1 (1=0-19%) | 1 (1=0-19%) | 1 (1=0-19%) |  |  |  |  |  |  |  |  |  |  |  |  |
| Cc1ccc(C(F)(F)F)c(C(=O)Nc2nncn2C)c1 [Compound 2.006] |  |  |  |  |  |  |  |  | 1 (1=0-19%) | 2 (2=20-39%) | 1 (1=0-19%) | 2 (2=20-39%) | 1 (1=0-19%) | 4 (4=60-79%) | 1 (1=0-19%) | 2 (2=20-39%) | 1 (1=0-19%) | 3 (3=40-59%) | 1 (1=0-19%) | 3 (3=40-59%) |
